Structures can show the parent of a compound that is named as a salt.
Tests used:
[1] = target: BRD4-BD1 (Homo sapiens (Human), UniProt O60885); experiment: BRD4 AlphaScreen assay, BRD4-BD1; type: binding; settings: biotin-labeled tetra-acetylated histone H4 peptide, 75 min, room temperature, read-out: BRD4 BD-1 enzyme IC50
Method in brief: (§1)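 AlphaScreen displacement of 50 nM biotin-tetra-acetylated H4 peptide from 3.8 nM BRD4-BD1 (1.25% DMSO) or 20 nM BRD4-BD2 (0.83% DMSO) in HEPES pH 7.4 buffer, 75 min RT. Streptavidin donor/GSH acceptor beads added, 75 min dark; IC50 from log-concentration curve fit.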

[2] = target: BRD4-BD2 (Homo sapiens (Human), UniProt O60885); experiment: BRD4 AlphaScreen assay, BRD4-BD2; type: binding; settings: biotin-labeled tetra-acetylated histone H4 peptide, 75 min, room temperature, read-out: BRD4 BD-2 enzyme IC50
Method in brief: as §1

| Compound | IC50 [1] | IC50 [2] |
| --- | --- | --- |
| Cc1nnc2ccc3c(cc(-c4ccn(C5(CC#N)CN(S(C)(=O)=O)C5)n4)n3Cc3ccccc3)n12 [Example 92, [3-[3-(6-benzyl-1-methyl-6H-pyrrolo[2,3-e][1,2,4]triazolo[4,3-a]pyridin-7-yl)-1H-pyrazol-1-yl]-1-(methylsulfonyl)azetidin-3-yl]acetonitrile] | ≤ 100 nM | ≤ 100 nM |
| CNC(=O)CCn1ccc(-c2cc3c(ccc4nnc(C)n43)n2Cc2cccc(Cl)c2)n1 [Example 174, 3-{3-[6-(3-Chlorobenzyl)-1-methyl-6H-pyrrolo[2,3-e][1,2,4]triazolo[4,3-a]pyridin-7-yl]-1H-pyrazol-1-yl}-N-methylpropanamide Trifluoroacetate Salt] | ≤ 100 nM | ≤ 100 nM |
| Cc1cc2c(cc(Nc3ncc[nH]3)c3nnc(C)n32)n1Cc1ccccc1 [Example 253, 6-Benzyl-N-(1H-imidazol-2-yl)-1,7-dimethyl-6H-pyrrolo[2,3-e][1,2,4]triazolo[4,3-a]pyridin-4-amine] | ≤ 100 nM | ≤ 100 nM |
| Cc1cc2c(ccc3nnc(C)n32)n1Cc1cccc(C(N)=O)c1 [Example 30, 3-((1,7-dimethyl-6H-pyrrolo[2,3-e][1,2,4]triazolo[4,3-a]pyridin-6-yl)methyl)benzamide Trifluoroacetate Salt] | 100 to 1000 nM | ≤ 100 nM |
| CCC(=O)Nc1cc2c(cc(C)n2Cc2ccccc2)n2c(C)nnc12 [Example 268, N-(6-Benzyl-1,7-dimethyl-6H-pyrrolo[2,3-e][1,2,4]triazolo[4,3-a]pyridin-4-yl)propionamide] | ≤ 100 nM | ≤ 100 nM |
| CCNC(=O)c1cc2c(ccc3nnc(C)n32)n1Cc1ccccc1 [Example 59, 6-benzyl-N-ethyl-1-methyl-6H-pyrrolo[2,3-e][1,2,4]triazolo[4,3-a]pyridine-7-carboxamide] | ≤ 100 nM | ≤ 100 nM |
| Cc1nnc2ccc3c(cc(-c4cn(CCC#N)cn4)n3Cc3ccccc3)n12 [Example 81, 3-[4-(6-benzyl-1-methyl-6H-pyrrolo[2,3-e][1,2,4]triazolo[4,3-a]pyridin-7-yl)-1H-imidazol-1-yl]propanenitrile] | ≤ 100 nM | ≤ 100 nM |
| Cc1cc2c(cc(NC(N)=O)c3nnc(C)n32)n1Cc1cccc(C(F)(F)F)c1 [Example 230, 1-(1,7-Dimethyl-6-(3-(trifluoromethyl)benzyl)-6H-pyrrolo[2,3-e][1,2,4]triazolo[4,3-a]pyridin-4-yl)urea] | ≤ 100 nM | ≤ 100 nM |
| Cc1cc2c(cc(NC3CN(C(=O)OC(C)(C)C)C3)c3nnc(C)n32)n1Cc1ccccc1 [Example 244, tert-Butyl 3-(6-benzyl-1,7-dimethyl-6H-pyrrolo[2,3-e][1,2,4]triazolo[4,3-a]pyridin-4-ylamino)azetidine-1-carboxylate] | ≤ 100 nM | ≤ 100 nM |
| CCNC(=O)c1cc2c(ccc3nnc(C)n32)n1Cc1cccc(CN2CCC2)c1 [Example 121, 6-[3-(Azetidin-1-ylmethyl)benzyl]-N-ethyl-1-methyl-6H-pyrrolo[2,3-e][1,2,4]triazolo[4,3-a]pyridine-7-carboxamide bis(trifluoroacetate) Salt] | ≤ 100 nM | ≤ 100 nM |
| Cc1cc2c(cc(NC3CCC(C#N)CC3)c3nnc(C)n32)n1Cc1ccccc1 (single isomer, unassigned) [Example 215 a, 4-[(6-benzyl-1,7-dimethyl-6H-pyrrolo[2,3-e][1,2,4]triazolo[4,3-a]pyridin-4-yl)amino]cyclohexanecarbonitrile Trifluoroacetate Salt] | 100 to 1000 nM | ≤ 100 nM |
| Cc1nnc2ccc3c(cc(C(=O)N4CCOCC4)n3Cc3cccc(Cl)c3)n12 [Example 116, 6-(3-Chlorobenzyl)-1-methyl-7-(morpholin-4-ylcarbonyl)-6H-pyrrolo[2,3-e][1,2,4]triazolo[4,3-a]pyridine Trifluoroacetate Salt] | 1000 to 10000 nM | 1000 to 10000 nM |
| Cc1cc2c(cc(NC3CCN(S(C)(=O)=O)CC3)c3nnc(C)n32)n1Cc1ccccc1 [Example 211, 6-Benzyl-1,7-dimethyl-N-[1-(methylsulfonyl)piperidin-4-yl]-6H-pyrrolo[2,3-e][1,2,4]triazolo[4,3-a]pyridin-4-amine] | ≤ 100 nM | ≤ 100 nM |
| Cc1nnc2ccc3c(cc(-c4cnn(CC#N)c4)n3Cc3ccccc3)n12 [Example 64, [4-(6-benzyl-1-methyl-6H-pyrrolo[2,3-e][1,2,4]triazolo[4,3-a]pyridin-7-yl)-1H-pyrazol-1-yl]acetonitrile] | ≤ 100 nM | ≤ 100 nM |
| Cc1nnc2ccc3c(cc(-c4ccn(C5CN(S(=O)(=O)C6CC6)C5)n4)n3Cc3cccc(Cl)c3)n12 [Example 165, 6-(3-Chlorobenzyl)-7-{1-[1-(cyclopropylsulfonyl)azetidin-3-yl]-1H-pyrazol-3-yl}-1-methyl-6H-pyrrolo[2,3-e][1,2,4]triazolo[4,3-a]pyridine Trifluoroacetate Salt] | ≤ 100 nM | ≤ 100 nM |
| Cc1cc2c(ccc3nnc(C)n32)n1Cc1cccc(NC(N)=O)c1 [Example 44, N-{3-[(1,7-dimethyl-6H-pyrrolo[2,3-e][1,2,4]triazolo[4,3-a]pyridin-6-yl)methyl]phenyl}urea] | 100 to 1000 nM | ≤ 100 nM |
| Cc1nnc2ccc3c(cc(-c4ncco4)n3Cc3cc(Cl)cc(CN4CC(O)C4)c3)n12 [Example 198, 1-(3-Chloro-5-{[1-methyl-7-(1,3-oxazol-2-yl)-6H-pyrrolo[2,3-e][1,2,4]triazolo[4,3-a]pyridin-6-yl]methyl}benzyl)azetidin-3-ol bis(trifluoroacetate) Salt] | ≤ 100 nM | ≤ 100 nM |
| Cc1cc2c(cc(NC(=O)N(C)C)c3nnc(C)n32)n1Cc1ccccc1 [Example 251, 3-(6-Benzyl-1,7-dimethyl-6H-pyrrolo[2,3-e][1,2,4]triazolo[4,3-a]pyridin-4-yl)-1,1-dimethylurea] | 100 to 1000 nM | ≤ 100 nM |
| Cc1nnc2ccc3c(cc(C(=O)N(C)C)n3Cc3ccccc3)n12 [Example 94, 6-benzyl-N,N,1-trimethyl-6H-pyrrolo[2,3-e][1,2,4]triazolo[4,3-a]pyridine-7-carboxamide] | 100 to 1000 nM | 100 to 1000 nM |
| CCNC(=O)c1cccc(Cn2c(C)cc3c2ccc2nnc(C)n23)c1 [Example 33, 3-[(1,7-dimethyl-6H-pyrrolo[2,3-e][1,2,4]triazolo[4,3-a]pyridin-6-yl)methyl]-N-ethylbenzamide Trifluoroacetate Salt] | 100 to 1000 nM | ≤ 100 nM |
| Cc1nnc2ccc3c(cc(-c4ccn(C(C)CC#N)n4)n3Cc3ccccc3)n12 (racemic) [Example 87, 3-[3-(6-benzyl-1-methyl-6H-pyrrolo[2,3-e][1,2,4]triazolo[4,3-a]pyridin-7-yl)-1H-pyrazol-1-yl]butanenitrile Trifluoroacetate Salt] | ≤ 100 nM | ≤ 100 nM |
| Cc1cc2c(cc(N[C@@H]3CCNC3)c3nnc(C)n32)n1Cc1ccccc1 [Example 151, 6-benzyl-1,7-dimethyl-N-[(3R)-pyrrolidin-3-yl]-6H-pyrrolo[2,3-e][1,2,4]triazolo[4,3-a]pyridin-4-amine bis(trifluoroacetate) Salt] | ≤ 100 nM | ≤ 100 nM |
| Cc1nnc2ccc3c(cc(C4=NCCO4)n3Cc3cccc(Cl)c3)n12 [Example 193, 6-(3-Chlorobenzyl)-7-(4,5-dihydro-1,3-oxazol-2-yl)-1-methyl-6H-pyrrolo[2,3-e][1,2,4]triazolo[4,3-a]pyridine] | ≤ 100 nM | ≤ 100 nM |

Reference: US9777003B2, “Tricyclic heterocycles as bet protein inhibitors” (Incyte Corporation, priority 2013, dated 2017)
